Data as given in patent publication US12527774B2, “Estrogen-related receptor alpha modulators” (LEAD PHARMA HOLDING B.V., priority 2019, dated 2026).

Legend:
[1] = biological target: ERRα ligand binding domain (ERRα-LBD) (Homo sapiens (Human), UniProt P11474); test: ERRα AlphaScreen Assay; format: biochemical; conditions: disruption of binding of ERRα-LBD protein to biotin-PGC1α-3 co-activator peptide
Summary of the method: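 Disruption of co-activator binding read by AlphaScreen: compounds in triplicate, 1% DMSO, Tris pH 7.5 buffer, room temperature. Bacterially expressed 6His-SUMO-ERRα-LBD at 0.81 nM with beads for 1 h, then 15 nM biotinylated PGC1α peptide for 2 h. IC50 from four-parameter fits, averaged as pIC50.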

full length ERRα = full length ERRα (Homo sapiens (Human), UniProt P11474); test: Full Length ERRα Reporter Gene Assay; format: cell-based; conditions: SK-BR-3 cells, ERRα-RE luciferase reporter, overnight incubation; read-out: mean pIC50 (converted)
Chain of full length ERRα (P11474 whole entry): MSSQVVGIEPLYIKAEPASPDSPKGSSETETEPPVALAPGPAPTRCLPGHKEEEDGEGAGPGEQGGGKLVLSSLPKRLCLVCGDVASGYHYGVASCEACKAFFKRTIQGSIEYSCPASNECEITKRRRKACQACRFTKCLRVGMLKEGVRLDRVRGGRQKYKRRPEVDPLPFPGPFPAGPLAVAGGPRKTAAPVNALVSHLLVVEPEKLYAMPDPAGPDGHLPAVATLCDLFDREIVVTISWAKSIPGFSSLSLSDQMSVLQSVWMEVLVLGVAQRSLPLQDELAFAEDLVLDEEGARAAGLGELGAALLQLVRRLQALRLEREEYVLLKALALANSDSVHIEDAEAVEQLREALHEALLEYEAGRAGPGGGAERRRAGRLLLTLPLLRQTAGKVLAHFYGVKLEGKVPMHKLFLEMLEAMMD
Summary of the method: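 SK-BR-3 cells transiently co-transfected with full-length human ERRα expression construct and ERRα-RE luciferase reporter, plated next day at 25,000 cells/well in phenol-red-free medium with 2% charcoal-stripped FBS. Compound (12-point 4-fold series) incubated overnight; firefly luminescence read, activity as log IC50.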

B16F10 melanoma = test: B16F10 Melanoma Syngeneic Mouse Model; format: in vivo; conditions: 30 mpk p.o., q.d., C57BL/6 mice; for Tumor Growth Inhibition (%): Day 13
Procedure: B16F10 Melanoma Syngeneic Mouse Model
Examples inhibitors 100, 191, 192, 194 and 196 were tested for their ability to inhibit tumor growth in a B16F10 melanoma syngeneic mouse model.
Cell line and tumor model: B16F10 melanoma cell line derived allograft model in C57BL/6 mice.
Mouse B16F10 melanoma cells were sourced from American Type Culture Collection (ATCC), USA. Cells were grown in DMEM (Invitrogen, Catalogue No. 31600-034) supplemented with 10% FBS (Invitrogen, Catalogue No. 10438-026), and 1% penicillin streptomycin (Thermo Fisher Scientific, Catalogue No. 15140-122). To establish allografts, the cells were harvested by trypsinization when they reach around 70 to 80% confluence and 0.1 million B16F10 cells were suspended in 50 μl of serum free medium and mixed at 1:1 ratio with matrigel before implanting subcutaneously into the dorsal right flank of mice using a 1 mL BD syringe attached to a 24-gauge needle.
B16F10 tumor grafts were measured after 5 days of cell inoculation once they became palpable. When the average tumor volume reached around 58 mm^3, animals were dosed after randomization into different treatment groups keeping tumor volume and number of animals in such a way so that the average tumor volume of each group remained same across the groups. Dosing was performed on a per kilogram weight basis, by mouth (per os, p.o.) once a day (quaque die, q.d).
Tumor dimensions—length (I) and breadth (b)—were measured by caliper on the day of animal randomization based on tumor volume (Day 1) and thrice weekly thereafter until study termination. Tumor volumes were calculated using the formula b^2*I*0.52 where l=length, b=breadth (Dusan Djokovic et al., BMC Cancer, 2010, 10:641). Tumor growth inhibition was calculated after normalizing the tumor volume on a given day to that on Day 1.
Test items administration was started when tumor volume reached an average of 58 mm^3.
Administration of test items was carried out until Day 14 and measurement of tumor volume was carried out until Day 13 for computing percent tumor growth inhibition (TGI).

Chain of ERRα ligand binding domain (ERRα-LBD) (P11474 193-421): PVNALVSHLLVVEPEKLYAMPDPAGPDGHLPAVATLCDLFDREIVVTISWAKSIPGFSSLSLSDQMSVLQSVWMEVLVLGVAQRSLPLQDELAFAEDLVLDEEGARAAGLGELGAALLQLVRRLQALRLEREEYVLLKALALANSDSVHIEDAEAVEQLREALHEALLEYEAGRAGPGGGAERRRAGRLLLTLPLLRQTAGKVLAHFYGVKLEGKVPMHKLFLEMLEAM

## COc1cc(C2CC(=O)Nc3n[nH]cc32)ccc1COc1ccc(Cl)cc1C(F)(F)F (single isomer, unassigned; (-)) [Example 194, (−)-4-(4-{[4-chloro-2-(trifluoromethyl)phenoxy]methyl}-3-methoxyphenyl)-2H,4H,5H,6H,7H-pyrazolo[3,4-b]pyridin-6-one]
[1]
  mean pIC50: ≥ 8
Full length ERRα
  IC50: ≤ 316 nM
B16F10 melanoma
  Tumor Volume (mm^3) Day 13: 870 ± 152 mm^3
  Tumor Growth Inhibition (%): 53%

## COc1cc(C2CC(=O)Nc3n[nH]cc32)ccc1COc1ccc(C(F)F)cc1C(F)(F)F (single isomer, unassigned; (-)) [Example 196, (−)-4-(4-{[4-(difluoromethyl)-2-(trifluoromethyl)phenoxy]methyl}-3-methoxyphenyl)-2H,4H,5H,6H,7H-pyrazolo[3,4-b]pyridin-6-one]
Full length ERRα
  IC50: ≤ 316 nM
B16F10 melanoma
  Tumor Volume (mm^3) Day 13: 755 ± 135 mm^3
  Tumor Growth Inhibition (%): 60%
